Structures can show the parent of a compound that is named as a salt. Where two headings read alike, the source gives them in different places. Marks after values point to notes of the source that are not given here.
How the values were obtained:
[1] = molecular target: hERG (Homo sapiens, UniProt Q12809); details: cited from earlier work
[2] = cited from earlier work; for incidence of QT prolongation: patients, Aloxi at doses above 2.25 mg, sotalol 1288 patients, vandetanib grade 3/4
[3] = cited from earlier work
[4] = molecular target: IKs (Homo sapiens, UniProt P51787); details: literature; cited from earlier work
IKs, sequence (P51787 whole entry): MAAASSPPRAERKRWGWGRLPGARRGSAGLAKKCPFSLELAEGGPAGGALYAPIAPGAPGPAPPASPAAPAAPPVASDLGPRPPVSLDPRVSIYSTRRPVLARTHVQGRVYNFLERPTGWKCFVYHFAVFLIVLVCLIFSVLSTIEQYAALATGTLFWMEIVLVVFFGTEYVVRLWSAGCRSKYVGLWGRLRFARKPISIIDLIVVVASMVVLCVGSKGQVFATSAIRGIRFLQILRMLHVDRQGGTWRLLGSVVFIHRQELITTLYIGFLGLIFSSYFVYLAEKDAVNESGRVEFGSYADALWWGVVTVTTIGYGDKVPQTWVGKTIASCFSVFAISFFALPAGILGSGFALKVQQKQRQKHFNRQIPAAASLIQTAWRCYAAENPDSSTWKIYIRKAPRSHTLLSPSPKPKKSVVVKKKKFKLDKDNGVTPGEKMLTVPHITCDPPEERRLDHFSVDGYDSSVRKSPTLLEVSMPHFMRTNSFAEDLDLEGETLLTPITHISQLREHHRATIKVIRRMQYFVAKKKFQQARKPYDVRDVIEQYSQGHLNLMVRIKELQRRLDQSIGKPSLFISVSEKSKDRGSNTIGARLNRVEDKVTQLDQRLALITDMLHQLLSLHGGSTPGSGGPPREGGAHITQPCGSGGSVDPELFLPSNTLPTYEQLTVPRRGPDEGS

[5] = cited from earlier work; remark: listed apart in the source
[6] = system: isolated rabbit Purkinje fibers; details: 5 μM; cited from earlier work
[7] = system: calcium channel; details: literature; read-out: calcium channel blocking EC50; cited from earlier work
[8] = system: in vitro rabbit heart
[9] = cited from earlier work; for Cmax: read-out: steady state Cmax
[10] = system: rabbit heart
[11] = system: CaV; details: literature; read-out: CaV IC50 (Doherty et al); cited from earlier work
[12] = crizotinib intravenously; nilotinib orally up to 600 mg/kg; cited from earlier work
[13] = system: in vitro rabbit hearts; assay: Left ventricular pressure in in vitro rabbit hearts
[14] = system: in vitro rabbit heart; assay: In vitro rabbit heart QTc intervals; set-up: dose or concentration left out as unconfirmed; details: liposomes 9:1
[15] = molecular target: NaV1.5 (Homo sapiens, UniProt Q14524); details: literature; read-out: NaV1.5 IC50 (Doherty et al); cited from earlier work
NaV1.5, sequence (Q14524 whole entry): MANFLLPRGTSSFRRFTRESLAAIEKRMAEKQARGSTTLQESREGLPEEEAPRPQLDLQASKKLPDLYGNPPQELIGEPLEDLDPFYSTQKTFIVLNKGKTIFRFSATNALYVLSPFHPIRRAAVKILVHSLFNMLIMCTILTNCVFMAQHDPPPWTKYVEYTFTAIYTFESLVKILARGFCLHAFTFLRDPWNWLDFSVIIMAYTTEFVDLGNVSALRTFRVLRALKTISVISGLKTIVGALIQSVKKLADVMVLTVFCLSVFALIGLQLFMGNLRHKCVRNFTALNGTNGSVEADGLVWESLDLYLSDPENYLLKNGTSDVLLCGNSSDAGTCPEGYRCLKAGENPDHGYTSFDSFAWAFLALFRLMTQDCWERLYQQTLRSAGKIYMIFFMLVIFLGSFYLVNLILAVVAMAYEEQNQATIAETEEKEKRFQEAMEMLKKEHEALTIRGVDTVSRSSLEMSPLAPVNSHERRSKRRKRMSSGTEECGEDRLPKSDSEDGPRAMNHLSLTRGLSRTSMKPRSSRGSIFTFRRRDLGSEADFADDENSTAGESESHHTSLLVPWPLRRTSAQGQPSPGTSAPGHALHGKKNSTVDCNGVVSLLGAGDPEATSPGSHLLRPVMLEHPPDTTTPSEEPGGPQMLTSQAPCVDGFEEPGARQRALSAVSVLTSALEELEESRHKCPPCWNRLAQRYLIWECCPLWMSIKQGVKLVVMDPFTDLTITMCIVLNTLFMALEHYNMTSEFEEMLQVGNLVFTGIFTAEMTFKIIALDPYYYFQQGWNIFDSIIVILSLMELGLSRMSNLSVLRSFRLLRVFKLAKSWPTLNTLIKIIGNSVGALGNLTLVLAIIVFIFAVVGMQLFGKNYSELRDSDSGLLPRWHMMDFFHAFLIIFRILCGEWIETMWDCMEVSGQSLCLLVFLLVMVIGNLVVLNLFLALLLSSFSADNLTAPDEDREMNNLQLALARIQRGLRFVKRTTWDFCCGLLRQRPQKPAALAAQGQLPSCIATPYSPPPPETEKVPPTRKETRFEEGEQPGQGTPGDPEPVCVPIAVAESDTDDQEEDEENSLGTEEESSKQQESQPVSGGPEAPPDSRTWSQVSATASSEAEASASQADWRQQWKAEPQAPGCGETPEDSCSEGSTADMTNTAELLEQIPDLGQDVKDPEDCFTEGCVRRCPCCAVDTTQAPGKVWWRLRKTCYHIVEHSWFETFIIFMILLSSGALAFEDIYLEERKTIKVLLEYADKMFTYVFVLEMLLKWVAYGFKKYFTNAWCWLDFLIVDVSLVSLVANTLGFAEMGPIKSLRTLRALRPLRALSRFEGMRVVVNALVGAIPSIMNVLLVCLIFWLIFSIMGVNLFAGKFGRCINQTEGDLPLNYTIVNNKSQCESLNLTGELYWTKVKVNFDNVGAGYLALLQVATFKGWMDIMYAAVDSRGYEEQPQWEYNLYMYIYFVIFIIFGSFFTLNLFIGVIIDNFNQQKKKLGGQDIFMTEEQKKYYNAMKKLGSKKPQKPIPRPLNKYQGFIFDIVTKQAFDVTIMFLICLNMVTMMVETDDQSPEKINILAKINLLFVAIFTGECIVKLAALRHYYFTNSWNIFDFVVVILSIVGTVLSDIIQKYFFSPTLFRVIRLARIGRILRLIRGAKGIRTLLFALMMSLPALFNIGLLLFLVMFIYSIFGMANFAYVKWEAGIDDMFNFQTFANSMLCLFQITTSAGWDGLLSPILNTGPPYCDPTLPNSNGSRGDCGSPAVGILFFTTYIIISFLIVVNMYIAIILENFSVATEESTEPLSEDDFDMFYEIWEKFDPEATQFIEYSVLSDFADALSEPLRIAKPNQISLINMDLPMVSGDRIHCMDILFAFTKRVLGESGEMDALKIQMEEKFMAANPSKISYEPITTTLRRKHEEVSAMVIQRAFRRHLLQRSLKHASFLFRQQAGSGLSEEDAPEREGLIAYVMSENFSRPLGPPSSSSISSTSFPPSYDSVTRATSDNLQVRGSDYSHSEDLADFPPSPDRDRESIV

[16] = system: rabbit heart; remark: listed apart in the source
[17] = read-out: hERG IC50, literature
[18] = Chinese patients given 400 mg BID
[19] = cancer patients given 400 mg BID
[20] = cancer patients given 500 mg BID
[21] = children with cancer, 280 mg/m^2 BID
[22] = crizotinib 2 mg/kg, vs baseline
[23] = crizotinib 3 mg/kg, vs baseline

hERG, sequence (Q12809 whole entry): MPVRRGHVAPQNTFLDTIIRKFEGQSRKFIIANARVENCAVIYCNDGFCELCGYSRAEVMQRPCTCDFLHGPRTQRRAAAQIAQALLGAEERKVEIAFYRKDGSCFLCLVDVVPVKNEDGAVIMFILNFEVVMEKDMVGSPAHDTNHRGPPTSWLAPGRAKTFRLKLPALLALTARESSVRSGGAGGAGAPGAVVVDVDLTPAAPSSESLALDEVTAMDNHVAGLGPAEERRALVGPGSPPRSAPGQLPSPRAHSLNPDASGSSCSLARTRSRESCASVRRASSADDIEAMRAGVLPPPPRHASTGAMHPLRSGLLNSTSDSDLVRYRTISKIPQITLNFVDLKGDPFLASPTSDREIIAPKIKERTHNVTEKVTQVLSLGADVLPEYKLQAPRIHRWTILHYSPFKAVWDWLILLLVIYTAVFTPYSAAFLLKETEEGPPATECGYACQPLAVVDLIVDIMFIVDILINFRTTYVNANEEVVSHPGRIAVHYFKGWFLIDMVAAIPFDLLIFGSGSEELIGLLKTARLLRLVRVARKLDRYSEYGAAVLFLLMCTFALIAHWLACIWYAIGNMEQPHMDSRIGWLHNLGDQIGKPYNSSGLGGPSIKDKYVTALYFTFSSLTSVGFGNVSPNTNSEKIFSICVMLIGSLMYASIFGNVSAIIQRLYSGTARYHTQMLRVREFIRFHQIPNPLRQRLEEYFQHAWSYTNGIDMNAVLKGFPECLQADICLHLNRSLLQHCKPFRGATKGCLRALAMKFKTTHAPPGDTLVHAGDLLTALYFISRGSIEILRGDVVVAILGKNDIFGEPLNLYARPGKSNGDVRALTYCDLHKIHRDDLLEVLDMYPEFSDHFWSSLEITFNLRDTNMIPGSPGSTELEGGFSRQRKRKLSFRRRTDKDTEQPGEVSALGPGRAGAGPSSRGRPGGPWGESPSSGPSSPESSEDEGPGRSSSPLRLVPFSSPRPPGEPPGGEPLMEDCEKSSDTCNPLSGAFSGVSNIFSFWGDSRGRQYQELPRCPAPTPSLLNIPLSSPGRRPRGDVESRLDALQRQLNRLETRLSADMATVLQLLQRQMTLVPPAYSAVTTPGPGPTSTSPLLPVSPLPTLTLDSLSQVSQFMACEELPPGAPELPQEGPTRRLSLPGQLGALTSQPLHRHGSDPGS

Molecule: CCCCc1oc2ccc(NS(C)(=O)=O)cc2c1C(=O)c1ccc(OCCCN(CCCC)CCCC)cc1 [Dronedarone]
- IC50 [1, 17]: 0.07 µM
- IC50 ([1]; read-out: hERG IC50, wild type hERG tails at −40 mV following activation at +30 mV): 0.059 µM

Molecule: CC(C)NCC(O)c1ccc(NS(C)(=O)=O)cc1 (centres unmarked) [Sotalol]
- incidence of QT prolongation [2]: 2%

Molecule: O=C(CCCN1CCC(O)(c2ccc(Cl)cc2)CC1)c1ccc(F)cc1 [Haloperidol]
- hERG blocker potency (in words) [1]: high potency hERG blocker

Molecule: COc1c(N2C[C@@H]3CCCN[C@@H]3C2)c(F)cc2c(=O)c(C(=O)O)cn(C3CC3)c12 [Moxifloxacin]
- QTc prolongation ([3]; 100 uM): 22%

Molecule: COc1cccc2c1C(=O)c1c(O)c3c(c(O)c1C2=O)C[C@@](O)(C(=O)CO)C[C@@H]3O[C@H]1C[C@H](N)[C@H](O)[C@H](C)O1 [Doxorubicin]
- QTc prolongation ([3]; 30 uM): 13%
- IC50 [4]: 4.78 µM

Molecule: O=C1c2cccc3c2[C@H](CCC3)CN1[C@@H]1CN2CCC1CC2 [Aloxi, palonasitron HCL]
- incidence of EKG adverse events ([2]; doses above 2.25 mg): > 2%
- incidence of bradycardia ([2]; doses above 2.25 mg): 4%
- incidence of QT prolongation [2]: 5%

Molecule: CC(C)NCC(O)COc1cccc2ccccc12 (centres unmarked) [propranolol]
- decrease of risk of cardiac events ([5]; LQT1): 81%
- subjects still developing cardiac events on adequate treatment ([5]; LQT1): 10%
- subjects still developing cardiac events ([5]; LQT2): 23%
- decrease of cardiac event risk ([5]; LQT2 subjects): 59%
- subjects developing cardiac events on adequate treatment ([5]; LQT3): 32%

Molecule: CCC(=O)C(CC(C)N(C)C)(c1ccccc1)c1ccccc1 (centres unmarked) [Methadone]
- IC50 [1, 17]: 4.8 µM

Molecule: COc1cc2c(Nc3ccc(Br)cc3F)ncnc2cc1OCC1CCN(C)CC1 [Vandetanib]
- incidence of QT prolongation [2]: > 5%

Molecule: CS(=O)(=O)CCNCc1ccc(-c2ccc3ncnc(Nc4ccc(OCc5cccc(F)c5)c(Cl)c4)c3c2)o1 [Lapatinib]
- action potential duration (in words) [6]: prolong action potential duration

Molecule: CC(C)COCC(CN(Cc1ccccc1)c1ccccc1)N1CCCC1 (centres unmarked) [Bepridil]
- EC50 [7]: 10 µM

Molecule: [K+] [Potassium]
- reduction of the QTc interval ([5]; plasma concentration raised by 1.5 mEq/L above baseline): 24%

Molecule: CC(=O)Oc1ccc2c3c1O[C@H]1[C@@H](OC(C)=O)C=C[C@H]4[C@@H](C2)N(C)CC[C@@]341 [heroin]
- IC50 [1]: 427 µM

Molecule: Cc1cn(-c2cc(NC(=O)c3ccc(C)c(Nc4nccc(-c5cccnc5)n4)c3)cc(C(F)(F)F)c2)cn1 [Nilotinib]
- effect on the QTc interval of in vitro rabbit hearts (in words) [8]: dose dependent prolongation of the QTc interval
- steady state Cmax [9, 18]: 2161 ng/mL
- Cmax [9, 18]: 4100 nM
- steady state Cmax [9, 19]: 1754 ng/mL
- Cmax [9, 19]: 3300 nM
- PR Intervals ([10]; nilotinib 2 mg/kg IV): 78 ms
- QRS Intervals ([10]; nilotinib 2 mg/kg IV): 44* ms
- QT Intervals ([10]; nilotinib 2 mg/kg IV): 182* ms
- QTc Intervals (Van der Water) ([10]; nilotinib 2 mg/kg IV): 245* ms
- PR Intervals ([10]; nilotinib 4 mg/kg IV): 80 ms
- QRS Intervals ([10]; nilotinib 4 mg/kg IV): 46* ms
- QT Intervals ([10]; nilotinib 4 mg/kg IV): 201* ms
- QTc Intervals (Van der Water) ([10]; nilotinib 4 mg/kg IV): 262* ms
- RR Intervals ([10]; nilotinib 4 mg/kg IV): 307 ms
- QRS interval prolongation ([10]; nilotinib 4 mg/kg, vs baseline): 6 ms
- QT interval prolongation ([10]; nilotinib 4 mg/kg, vs baseline): 41 ms
- QTc interval prolongation ([10]; nilotinib 4 mg/kg, vs baseline): 36 ms
- RR Intervals ([10]; nilotinib loading dose 2 mg/kg IV): 273 ms
- IC50 [11]: > 3 µM

Molecule: COc1ccc(CN(CCN(C)C)c2ccccn2)cc1 [Pyrilamine]
- hERG blocker potency (in words) [1]: low potency hERG blocker

Molecule: C[C@@H](Oc1cc(-c2cnn(C3CCNCC3)c2)cnc1N)c1c(Cl)ccc(F)c1Cl [Crizotinib]
- ECG effect in dogs (in words) [12]: increased PR-, QRS- and QT-intervals
- effect on LVP (in words) [13]: decrease in LVP
- steady state Cmax [9, 20]: 650 ng/mL
- Cmax [9, 20]: 1500 nM
- steady state Cmax [9, 21]: 630 ng/mL
- Cmax [9, 21]: 1400 nM
- effect on the QTc interval of in vitro rabbit hearts (in words) [14]: dose dependent prolongation of the QTc interval
- IC50 [11]: 3.1 µM
- IC50 [15]: 3.5 µM
- QRS Intervals ([16]; crizotinib 1 mg/kg IV): 48 ms
- QT Intervals ([16]; crizotinib 1 mg/kg IV): 189* ms
- QTc interval (Van der Water) ([16]; crizotinib 1 mg/kg IV): 251* ms
- QRS Intervals ([16]; crizotinib 2 mg/kg IV): 53* ms
- QT Intervals ([16]; crizotinib 2 mg/kg IV): 205* ms
- QTc interval (Van der Water) ([16]; crizotinib 2 mg/kg IV): 264* ms
- RR Intervals ([16]; crizotinib 2 mg/kg IV): 324* ms
- QT interval prolongation [16, 22]: 34 ms
- RR interval prolongation [16, 22]: 67 ms
- QRS Intervals ([16]; crizotinib 3 mg/kg IV): 56* ms
- QT Intervals ([16]; crizotinib 3 mg/kg IV): 218* ms
- QTc interval (Van der Water) ([16]; crizotinib 3 mg/kg IV): 273* ms
- RR Intervals ([16]; crizotinib 3 mg/kg IV): 367* ms
- PR interval prolongation [16, 23]: 23 ms
- QRS interval prolongation [16, 23]: 13 ms
- QT interval prolongation [16, 23]: 48 ms
- QTc interval prolongation (Van der Water) [16, 23]: 38 ms
- RR interval prolongation [16, 23]: 110 ms
- RR Intervals ([16]; crizotinib loading dose 1 mg/kg IV): 294* ms

Molecule: Arsenic trioxide
- hERG blocker potency (in words) ([1]; literature): ineffective hERG blocker
- IC50 [1, 17]: > 300 µM
